One data set has as its system Abeta 1-38. The note with it: 20 mg/kg, 24 h.
The nature of data set [1]: Single dose pharmacology in the Beagle dog, limited safety evaluation. The format is in vivo. The note with it: single dose 20 mg/kg. On the procedure: Single Dose Pharmacology in the Beagle Dog
Compound 86 was tested to evaluate the effect on the beta-amyloid profile in cerebrospinal fluid (CSF) of dogs after a single dose, in combination with pharmacokinetic (PK) follow up and limited safety evaluation. 6 Beagle dogs (3 male, 3 female) were dosed with vehicle (4 ml/kg of an aqueous suspension of 20% cyclodextrin and Tween) and 6 Beagle dogs (3 male, 3 female) were dosed with compound 86 (20 mg/kg in 2 ml/kg of an aqueous 20% cyclodextrin solution) on an empty stomach. CSF was taken in conscious animals directly from the lateral ventricle via a cannula which was screwed in the skull and covered with subcutaneous tissue and skin, before and at 4, 8 and 24 hours after dosing. 8 Hours after dosing the animals got access to their regular meal for 30 minutes. Blood was taken for PK follow up (0.5, 1, 2, 4, 8 and 24 hours) and at the time of the CSF sampling, samples for serum analysis were taken. An additional sample for serum analysis was taken 10 days after dosing. The CSF samples were used for measurement of Abeta 1-37, Abeta 1-38, Abeta 1-40 and Abeta 1-42.

For a further data set, the system named is Abeta 1-37. The note with it: Beagle dog, single dose 20 mg/kg, at 24 h.
The target of the next data set is T1, P-gp (Homo sapiens, UniProt P08183).
T1 construct: expressed in transfected cells; host or cells: LLC-PK1 cells stably transduced with MDR1 (LLC-MDR1)
Kind of data set: Transepithelial transport of test compounds through LLC-MDR1 monolayers. It counts as in vitro ADME. The note with it: pig, LLC-PK1. Put shortly:
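LLC-PK1 cells stably transduced with human MDR1, grown 5 days on transwell inserts; compound at 1 μM applied apically or basolaterally (A→B, B→A) in OPTI-MEM with 1% BSA, 120 min at 37 °C, triplicate. Acceptor and donor sampled and quantified by LC-MS/MS; fluorescein checked monolayer integrity.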

The target of data set [2] is recombinant BACE1 protein (Homo sapiens, UniProt P56817). Kind of data set: Biochemical FRET based assay. The note with it: recombinant BACE1 1 μg/ml, 120 minutes at room temperature, pH 5.0; read-out: Biochemical FRET based assay pIC50 (converted). The procedure, abridged:
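Proteolysis was read as the rise in donor fluorescence (320 nm excitation, 405 nm emission) from T0 to T120, expressed in RFU. The reaction ran 120 minutes at room temperature at pH 5.0 in citrate buffer with 4% DMSO, using […] quenched Swedish APP peptide and 1 μg/ml BACE1.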

T1 sequence (P08183 whole entry): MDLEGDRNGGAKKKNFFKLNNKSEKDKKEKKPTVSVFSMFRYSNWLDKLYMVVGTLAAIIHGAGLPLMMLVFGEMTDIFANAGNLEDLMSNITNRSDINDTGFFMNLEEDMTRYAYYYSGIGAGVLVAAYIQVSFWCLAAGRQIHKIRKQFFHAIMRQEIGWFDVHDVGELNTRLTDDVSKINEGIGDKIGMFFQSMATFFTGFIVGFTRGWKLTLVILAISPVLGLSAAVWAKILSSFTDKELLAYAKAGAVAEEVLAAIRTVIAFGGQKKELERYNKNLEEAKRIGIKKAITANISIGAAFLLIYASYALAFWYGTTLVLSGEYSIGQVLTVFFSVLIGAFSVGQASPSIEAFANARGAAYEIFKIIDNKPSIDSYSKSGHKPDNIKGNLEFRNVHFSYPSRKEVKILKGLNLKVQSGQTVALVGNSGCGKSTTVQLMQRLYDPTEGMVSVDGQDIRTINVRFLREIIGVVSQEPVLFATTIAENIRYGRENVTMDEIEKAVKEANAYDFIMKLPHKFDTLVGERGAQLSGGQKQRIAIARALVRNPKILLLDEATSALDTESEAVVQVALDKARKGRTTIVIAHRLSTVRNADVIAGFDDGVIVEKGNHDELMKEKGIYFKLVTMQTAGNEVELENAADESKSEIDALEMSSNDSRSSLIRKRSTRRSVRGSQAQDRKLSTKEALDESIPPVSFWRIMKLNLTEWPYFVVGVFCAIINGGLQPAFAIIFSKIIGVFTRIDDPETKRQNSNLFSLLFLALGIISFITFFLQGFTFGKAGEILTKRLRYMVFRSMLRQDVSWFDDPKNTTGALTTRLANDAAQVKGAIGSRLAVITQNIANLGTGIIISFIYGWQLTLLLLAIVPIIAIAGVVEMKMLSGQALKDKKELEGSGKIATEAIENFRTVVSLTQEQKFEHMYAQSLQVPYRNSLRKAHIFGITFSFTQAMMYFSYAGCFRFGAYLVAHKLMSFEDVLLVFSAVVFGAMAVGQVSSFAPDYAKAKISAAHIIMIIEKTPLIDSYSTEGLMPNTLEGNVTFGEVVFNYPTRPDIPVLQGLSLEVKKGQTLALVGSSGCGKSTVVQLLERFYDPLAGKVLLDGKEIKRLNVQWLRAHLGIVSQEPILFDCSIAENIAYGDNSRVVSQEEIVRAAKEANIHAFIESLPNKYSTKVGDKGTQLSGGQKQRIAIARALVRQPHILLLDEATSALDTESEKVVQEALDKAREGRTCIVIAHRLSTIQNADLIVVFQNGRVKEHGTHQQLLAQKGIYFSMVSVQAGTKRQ
Chain of recombinant BACE1 protein (P56817 46-501): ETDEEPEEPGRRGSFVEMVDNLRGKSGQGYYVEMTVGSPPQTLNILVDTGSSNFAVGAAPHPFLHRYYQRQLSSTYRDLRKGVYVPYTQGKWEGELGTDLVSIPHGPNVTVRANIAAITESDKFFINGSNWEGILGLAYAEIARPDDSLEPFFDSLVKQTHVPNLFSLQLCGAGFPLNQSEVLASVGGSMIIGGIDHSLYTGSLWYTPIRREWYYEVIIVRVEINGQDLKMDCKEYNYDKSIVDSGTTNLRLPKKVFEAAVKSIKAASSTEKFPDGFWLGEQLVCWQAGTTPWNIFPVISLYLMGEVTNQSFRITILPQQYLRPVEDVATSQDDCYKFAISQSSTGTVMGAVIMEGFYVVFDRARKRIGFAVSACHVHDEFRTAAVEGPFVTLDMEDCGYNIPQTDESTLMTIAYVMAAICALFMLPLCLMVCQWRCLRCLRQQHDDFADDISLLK

For orientation: Papp A→B means the apparent permeability from the apical to the basolateral side of a cell layer. The Papp B→A is how fast a substance crosses the layer from the basolateral side. `C[C@]1(c2cccc(NC(=O)c3ccc(Cl)cn3)c2)N=C(N)CO[C@@H]1F` (single isomer, unassigned) [Compound 86, (R*,R*)—N-[3-(5-amino-2-fluoro-3-methyl-3,6-dihydro-2H-1,4-oxazin-3-yl)phenyl]-5-chloropyridine-2-carboxamide]: the “decrease in Abeta 1-38 in CSF compared to own baseline” value with Abeta 1-38 was more than 90%. In addition, the “clinical abnormalities in behavior” value in data set [1] was “no overt clinical abnormalities in behavior”. In data set [1] (serum up to 10 days after dosing), the “changes in serum parameters (liver enzymes, bilirubin, ...)” value was “No acute or delayed changes in serum parameters”. In addition, the “decrease in Abeta 1-37 in CSF compared to own baseline” value in the data set with Abeta 1-37 is 72%. For the same compound, the efflux ratio at 120 min, 1 μM at P-gp (LLC-MDR1 monolayers, ratio of B to A and A to B permeation rates, read-out: BA/AB) was determined as 1.6. Moreover, at P-gp (read-out: A to B (Apparent Permeability, Papp)), the apical-to-basolateral permeability (Papp A→B) at 120 min, 1 μM was 13.2 ×10⁻⁶ cm/s. Moreover, on P-gp (read-out: B to A (Apparent Permeability, Papp)), the Papp B→A at 120 min, 1 μM came to 20.9 ×10⁻⁶ cm/s. Besides, the IC50 in data set [2] is 38.9 nM.
